We go through 3 molecules from patent US20100003217A1, “Compounds and Pharmaceutical Compositions for the Treatment of Viral Infections” (priority 2008, published 2010).

Structures are written as SMILES. “And” between values parts separate entries of the source, which are not always exact repeats. Equal values may be shown once.

Series [1] in a line: Excretion of administered dose in rat urine and feces. Type of series: in vivo, male Sprague-Dawley rats. The conditions noted are these: Oral; 24 h after [14C]Compound 1. As to the method:
Isotopically diluted [^14C]-Compound 1 was administered intravenously to male Sprague-Dawley rats at 50 mg/kg or by oral gavage at 100 mg/kg.
Percent of the administered dose (% AD) for parent drug and each metabolite at each collection period=(% of the total radioactivity in the sample attributed to the metabolite)*(total radioactivity expressed as % of the administered dose, recovered during the corresponding collection period).
The urine and feces of each animal were analyzed for radiolabel content.

Series [2] concerns human primary hepatocytes. Description: Metabolic disposition of [^14C]-Compound 1 and [^14C]-2′-C-methyl guanosine in human primary hepatocytes (incubation medium, cellular extracts, nucleotide levels). The format is in vitro ADME. The gist of the method: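 Radio-HPLC and liquid scintillation counting quantified metabolites in incubation medium and in 70% methanol cell extracts. Samples came from cultured rat, monkey or human primary hepatocytes exposed at 37° C to 1 or 10 μM [^14C]-compound or [^14C]-2′-C-methyl guanosine, sampled at 1–24 hours. Phosphates were confirmed by phosphatase digestion to the nucleoside.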

Series [3] in a line: Incubation with human liver cytosol. Type of series: in vitro ADME. The conditions noted are these: human cytosol 1 mg/mL, 2 hours, 10 μM. The protocol: (§1) Pooled liver cytosol (1.0 mg protein/mL) suspended in incubation buffer (0.1 M potassium phosphate, pH 7.4) was incubated for 2 hours at 37° C. with 10 μM Compound 1 from a stock solution in DMSO (final DMSO concentration was 0.1%); reaction was initiated with the addition of test article. Incubations with no protein served as control. Reactions were terminated by the addition of 0.1 mL of stop solution (acetonitrile). The samples were vortex-mixed for 30 sec and then centrifuged at 10,000×g for 10 min. The supernatant was dried using a Labconco CentriVap concentrator and the dry residue reconstituted in water, transferred to an HPLC glass vial and analyzed by HPLC-UV method 2 (described above).
(§2) Metabolic stability of the proposed metabolites was conducted by incubating the chemically synthesized standards Compound 2, Compound 4 and Compound 3 as described above for Compound 1. When possible, formation of Compound 5 was verified by incubating samples with alkaline phosphatase (10 U) for 60 min at 37° C.

Series [4] in a line: Incubation with rat liver cytosol. Type of series: in vitro ADME. The conditions noted are these: rat cytosol 1 mg/mL, 2 hours, 10 μM. As to the method: as §1, §2
The mark [5] stands for this setting: human hepatocytes (Hu759, Hu775), 10 μM [^14C]-Compound 1, 1 h.
Setting [6] is: human hepatocytes (Hu759, Hu775), 10 μM [^14C]-Compound 1, 8 h.
Setting [7] is: human hepatocytes (Hu759, Hu775), 10 μM [^14C]-Compound 1, 24 h.
[8] abbreviates: human hepatocytes (Hu775), 1 μM [^14C]-Compound 1, 0 h.
Where [9] appears, read: human hepatocytes (Hu775), 1 μM [^14C]-Compound 1, 1 h.
[10] abbreviates: human hepatocytes (Hu775), 1 μM [^14C]-Compound 1, 8 h.
[11] abbreviates: human hepatocytes (Hu775), 1 μM [^14C]-Compound 1, 24 h.
The mark [12] stands for this setting: human hepatocytes Hu775, 1 μM [^14C]-2′-C-methyl guanosine, 1 h.
The mark [13] stands for this setting: human hepatocytes Hu775, 1 μM [^14C]-2′-C-methyl guanosine, 8 h.
[14] abbreviates: human hepatocytes Hu775, 1 μM [^14C]-2′-C-methyl guanosine, 24 h.

On to `C[C@@]1(O)[C@H](O)[C@@H](COP(=O)(O)NCc2ccccc2)O[C@H]1n1cnc2c(=O)[nH]c(N)nc21` [Compound 2, [(2R)-2-methyl-β-D-ribofuranosyl]guanine-N-benzylaminyl-5′-monophosphate], for which, in series [1], the “Percent of Dose, Total (urine, feces and liver)” value is listed as 0.001% of Dose. Besides, the “metabolites observed in cellular extracts (% of total radioactivity)” value in series [2] (setting [5]) is 6.50% and 2.30%; in series [2] (setting [6]), “BLD”; in series [2] (setting [7]), “BLD”; in series [2] (setting [9]) it was 4.94%; in series [2] (setting [10]), “BLD”; in series [2] (setting [11]) it was “BLD”. Further, the “metabolites observed in medium (% of total radioactivity)” value in series [2] (setting [8]) is 2.22%; in series [2] (setting [9]) it was “BLD”; in series [2] (setting [10]), 2.27%; in series [2] (setting [11]), 1.7% and 1.72%; in series [2] (human hepatocytes (lots Hu759, Hu775), 10 μM [^14C]-Compound 1, 0 h) it was 2.7% and 1.1%; in series [2] (human hepatocytes (lots Hu759, Hu775), 10 μM [^14C]-Compound 1, 4 h), 1.8% and 0.8%. The “metabolites observed in medium (% of total radioactivity)” value is 2.6% and 0.6% in series [2] (human hepatocytes (lots Hu759, Hu775), 10 μM [^14C]-Compound 1, 8 h); 2.7% and 0.7% in series [2] (human hepatocytes (lots Hu759, Hu775), 10 μM [^14C]-Compound 1, 24 h). The “Residual compound following incubation with liver cytosol” value in series [3] and in series [4] was 0% throughout.
On to `CC(C)(CO)C(=O)SCCOP(N)(=O)OC[C@H]1O[C@@H](n2cnc3c(=O)[nH]c(N)nc32)[C@](C)(O)[C@@H]1O` (mixture of isomers) [Compound 3, {9-[(2R)2-C-methyl-β-D-ribo-furanosyl]-guanin}-5′-yl-O-(hydroxy-tert-butyl-S-acyl-2-thioethyl) phosphoramidate], for which the “Residual compound following incubation with liver cytosol” value is listed as 100% in series [3] and 96% in series [4].
As to `C[C@@]1(O)[C@H](O)[C@@H](COP(=O)(O)OP(=O)(O)O)O[C@H]1n1cnc2c(=O)[nH]c(N)nc21` [Compound 6, [(2R)-2-methyl-β-D-ribofuranosyl]guanine 5′-diphosphate], the “Percent of Dose, Total (urine, feces and liver)” value in series [1] was 0.08% of Dose. In addition, the “metabolites observed in cellular extracts (% of total radioactivity)” value is 0.51% and 0.63% in series [2] (human hepatocytes (Hu759, Hu775), 10 μM [^14C]-2′-C-methyl guanosine, 1 h); 1.64% and 2.36% in series [2] (human hepatocytes (Hu759, Hu775), 10 μM [^14C]-2′-C-methyl guanosine, 4 h); 4.54% and 3.46% in series [2] (human hepatocytes (Hu759, Hu775), 10 μM [^14C]-2′-C-methyl guanosine, 8 h); 7.71% and 10.6% in series [2] (human hepatocytes (Hu759, Hu775), 10 μM [^14C]-2′-C-methyl guanosine, 24 h); 4.93% and 6.09% in series [2] (setting [5]); 8.01% and 12.4% in series [2] (human hepatocytes (Hu759, Hu775), 10 μM [^14C]-Compound 1, 4 h). For the same molecule, the “metabolites observed in cellular extracts (% of total radioactivity)” value in series [2] (setting [6]) was 13.99% and 11.1%; in series [2] (setting [7]), 13.4% and 17.05%; in series [2] (setting [9]), 7.94%; in series [2] (setting [10]), 13.0%; in series [2] (setting [11]), 12.4%. The “2′-C-methyl guanosine nucleotide levels in cellular extracts” value (“2′-C-methyl guanosine nucleotide levels” for short) was “BLD (BLD = below limit of detection (0.02 pmol/million cells))” in series [2] (setting [8]); 1.40 pmol/million cells in series [2] (setting [9]); 7.70 pmol/million cells in series [2] (setting [10]); 11.2 pmol/million cells in series [2] (setting [11]); 0 pmol/million cells in series [2] (human hepatocytes Hu759, 10 μM [^14C]-2′-C-methyl guanosine, 0 h); 2.10 pmol/million cells in series [2] (human hepatocytes Hu759, 10 μM [^14C]-2′-C-methyl guanosine, 1 h). The “2′-C-methyl guanosine nucleotide levels” value in series [2] (human hepatocytes Hu759, 10 μM [^14C]-2′-C-methyl guanosine, 4 h) was 7.50 pmol/million cells; in series [2] (human hepatocytes Hu759, 10 μM [^14C]-2′-C-methyl guanosine, 8 h), 22.1 pmol/million cells; in series [2] (human hepatocytes Hu759, 10 μM [^14C]-2′-C-methyl guanosine, 24 h) it was 46.0 pmol/million cells; in series [2] (human hepatocytes Hu759, 10 μM [^14C]-Compound 1, 0 h), 0 pmol/million cells; in series [2] (human hepatocytes Hu759, 10 μM [^14C]-Compound 1, 1 h), 3.00 pmol/million cells; in series [2] (human hepatocytes Hu759, 10 μM [^14C]-Compound 1, 4 h), 21.0 pmol/million cells. The “2′-C-methyl guanosine nucleotide levels” value in series [2] (human hepatocytes Hu759, 10 μM [^14C]-Compound 1, 8 h) is given as 45.0 pmol/million cells; in series [2] (human hepatocytes Hu759, 10 μM [^14C]-Compound 1, 24 h) it was 69.0 pmol/million cells; in series [2] (human hepatocytes Hu775, 1 μM [^14C]-2′-C-methyl guanosine, 0 h) it was “BLD (BLD = below limit of detection (0.02 pmol/million cells))”; in series [2] (setting [12]), “BLD (BLD = below limit of detection (0.02 pmol/million cells))”; in series [2] (setting [13]), 2.70 pmol/million cells; in series [2] (setting [14]) it was 4.00 pmol/million cells. Further, the “2′-C-methyl guanosine nucleotide levels” value in series [2] (human hepatocytes Hu775, 10 μM [^14C]-2′-C-methyl guanosine, 0 h) was 0 pmol/million cells; in series [2] (human hepatocytes Hu775, 10 μM [^14C]-2′-C-methyl guanosine, 1 h) it was 2.90 pmol/million cells; in series [2] (human hepatocytes Hu775, 10 μM [^14C]-2′-C-methyl guanosine, 4 h), 10.5 pmol/million cells; in series [2] (human hepatocytes Hu775, 10 μM [^14C]-2′-C-methyl guanosine, 8 h) it was 15.0 pmol/million cells; in series [2] (human hepatocytes Hu775, 10 μM [^14C]-2′-C-methyl guanosine, 24 h), 50.0 pmol/million cells; in series [2] (human hepatocytes Hu775, 10 μM [^14C]-Compound 1, 0 h), 0 pmol/million cells. For the same molecule, the “2′-C-methyl guanosine nucleotide levels” value in series [2] (human hepatocytes Hu775, 10 μM [^14C]-Compound 1, 1 h) amounted to 7.10 pmol/million cells; in series [2] (human hepatocytes Hu775, 10 μM [^14C]-Compound 1, 4 h) it was 38.4 pmol/million cells; in series [2] (human hepatocytes Hu775, 10 μM [^14C]-Compound 1, 8 h), 55 pmol/million cells; in series [2] (human hepatocytes Hu775, 10 μM [^14C]-Compound 1, 24 h) it was 161 pmol/million cells. For the same molecule, the results for the “Major metabolites observed in cellular extracts (% of total radioactivity)” value in series [2] (setting [12]), in series [2] (setting [13]) and in series [2] (setting [14]) were “BLD (BLD = below limit of detection (30 DPM))”, 6.83 % of total radioactivity and 9.04 % of total radioactivity, respectively.
